Source: PMC3165048 (Chemistry & biology, 2010)
Converted amounts (≈) assume the structure as drawn.

Tests used:
[1] = tested on: Aged-cultured (non-replicating) M. tuberculosis; assay: microbe, parasite or virus in culture; format: cell-based, M. tuberculosis H37Ra; details: Mycobacterium tuberculosis, read-out: M.I.C. Aged-cultured M. tuberculosis
MtMetAP1c = MtMetAP1c (Mycobacterium tuberculosis, UniProt P9WK18); assay: biochemical; details: […] CoCl2, 600 µM Met-Pro-pNA, 20 min pre-incubation
MtMetAP1a = MtMetAP1a (Mycobacterium tuberculosis, UniProt P9WK20); assay: Coupled methionine-proline aminopeptidase enzymatic assay; format: biochemical; details: […] CoCl2, 600 µM Met-Pro-pNA, 20 min pre-incubation
[2] = tested on: Replicating M. tuberculosis; assay: Minimum inhibitory concentration in replicating M. tuberculosis culture; format: cell-based, M. tuberculosis H37Rv

Chain of MtMetAP1c (P9WK18 whole entry): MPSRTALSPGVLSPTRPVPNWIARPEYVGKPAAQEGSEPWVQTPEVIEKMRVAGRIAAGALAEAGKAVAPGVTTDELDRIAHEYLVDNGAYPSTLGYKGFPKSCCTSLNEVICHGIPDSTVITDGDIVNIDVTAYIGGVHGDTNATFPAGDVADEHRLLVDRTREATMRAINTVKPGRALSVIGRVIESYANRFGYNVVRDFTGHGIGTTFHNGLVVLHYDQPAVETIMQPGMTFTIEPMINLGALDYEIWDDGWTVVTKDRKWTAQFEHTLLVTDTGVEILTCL
Chain of MtMetAP1a (P9WK20 whole entry): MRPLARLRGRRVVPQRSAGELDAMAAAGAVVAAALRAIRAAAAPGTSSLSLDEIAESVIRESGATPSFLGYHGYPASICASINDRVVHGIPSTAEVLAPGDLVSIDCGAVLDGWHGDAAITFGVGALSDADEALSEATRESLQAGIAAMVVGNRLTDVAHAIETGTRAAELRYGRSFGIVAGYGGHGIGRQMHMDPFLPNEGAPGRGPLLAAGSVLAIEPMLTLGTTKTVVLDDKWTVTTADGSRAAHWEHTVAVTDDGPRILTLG

SMILES: O=C1C(Cl)=C(Cl)C(=O)c2ccccc21 [Compound 4, 2,3-dichloro-1,4-naphthoquinone]
- MIC [1]: 5.7 to 11.4 µg/mL (≈ 25.1 to 50.2 µM)
- IC50 (MtMetAP1c): 6.6 ± 1.2 µM
- IC50 (MtMetAP1a): 3.3 ± 0.3 µM
- M.I.C. Replicating M. tuberculosis [2]: 10 µg/mL
